Results from patent US20170121687A1, “METHODS OF CELLULAR REPROGRAMMING” (Agency for Science, Technology and Research, priority 2014, published 2017).

System: IMR90
Test: Integrin ligation step with other extracellular matrices and growth factors after antibody induction
Type: cell-based, human
Settings: FIG. 12-15
Method: Cells were detached using conventional cell culture techniques and 60000 suspended cells in 100 μL media were incubated with 2 μg of each of the following antibodies—Anti-Integrin alpha V [272-17E6] (Abcam, USA), Anti-Integrin alpha 5 [P1D6]—Azide free (Abcam, USA), Anti-Integrin beta 3 antibody [25E11], Anti-Integrin αV/β5 (P1F6) L (Santa Cruz Biotechnology, USA), Anti-Integrin αVβ6, clone 10D5 (Merck, USA)—for 30 minutes in a 37° C. incubator. Control antibody used was normal mouse IgG1 antibody (Santa Cruz Biotechnology, USA). The volume of the cell suspension was brought up to 250 μL for subsequent seeding in a 48-well tissue culture plate. Two days after antibody treatment, extracellular matrix was added into the media. Reprogramming of U251 cells followed a modified procedure, where a 3-antibody combination comprising Anti-Integrins αv, αvβ5 and αvβ6 was used. Two days after antibody treatment, the cells were transferred to ECM that had been pre-coated onto the culture wells. Extracellular matrices used are basement membrane matrix, Geltrex (Life Technologies, USA), laminin 332 and laminin 511 (Biolamina, Sweden). One day after addition of extracellular matrix, the media was changed to one of the following growth factors-supplemented media—1) SKP media made up of DMEM/F12 (Life Technologies, USA) supplemented with 1× B27 supplement (Life Technologies, USA), 40 ng/mL bFGF, 20 ng/mL EGF (Life Technologies, USA); 2) mTESR2 (Stemcell Technologies, USA).
Cells were lysed for RNA using TRIzol® Reagent (Invitrogen, USA) following manufacturer's instructions. Purified RNA was reverse transcribed into cDNA using iScript™ cDNA synthesis kit (Bio-Rad, USA). The reaction was carried out in a 20 μL volume containing 4 μL 5× iScript reaction mix, 1 μL iScript reverse transcriptase, RNA template (≦1000 ng total RNA) and nuclease free water (variable). The complete reaction mix was incubated for at 5 minutes at 25° C., 30 minutes at 42° C., 5 minutes at 85° C. followed by holding at 4° C. (optional).
Reaction was performed on iQ5 multi-colour real-time PCR detection system (Bio-Rad, USA) using the iTaq™ Universal SYBR® Green supermix (Bio-Rad, USA). The 20 μL volume reaction component includes 10 μL iTaq™ Universal SYBR® Green supermix, 1 μL of primer mix (5 μM forward primer, 5 μM reverse primer), 1 to 100 ng template and nuclease free water (variable).
The reaction conditions were as follows: 30 sec at 95° C., followed by 40 cycles of 15 sec at 95° C. and 30 sec at 60° C. […] Relative quantization of target mRNA expression, normalized to an endogenous control and relative to a calibrator, was calculated using the mathematical expression for fold change 2-ΔΔCt (fold change).

Molecule	expression of MET and stemness markers
HGF: hepatocyte growth factor	reduced expression of both MET and stemness markers
Laminin 511: extracellular matrix (Biolamina, Sweden) used during the integrin ligation step	positively influenced
Laminin 521: extracellular matrix used during the integrin ligation step	positively influenced
KGF: keratinocyte growth factor (protein, UniProt P21781 32-194, looked up) Fibroblast growth factor 7: CNDMTPEQMATNVNCSSPERHTRSYDYMEGGDIRVRRLFCRTQWYLRIDKRGKVKGTQEMKNNYNIMEIRTVAVGIVAIKGVESEFYLAMNKEGKLYAKKECNEDCNFKELILENHYNTYASAKWTHNGGEMFVALNQKGIPVRGKKTKKEQKTAHFLPMAIT	did not appear to significantly affect
